Columns and labels:
[1] = tested on: SJSA-1 osteosarcoma cell line; assay: MTT cell viability assay; type: cell-based; details: 72 h incubation, average of 2-5 experiments
Method: The effect of the invented p53-Mdm2 inhibitors on cell viability has been assessed using MTT assay. It is a colorimetric assay that measures conversion of tetrazolium ring of the soluble yellow dye (MTT) into insoluble purple formazan. This process is catalysed solely in mitochondrial dehydrogenases of living cells.
Cells were seeded on 96-well plates and then treated with successive dilutions of tested compounds. After 72 h incubation, MTT was added to the final concentration 0.5 mg/ml. The cells were further incubated for the next 4 h. Then the solution was drained and the remaining formazan crystals were dissolved in 100 μl DMSO. […] All the MTT experiments were independently repeated 2-5 times. Dose-dependent binding curves and IC50 values were calculated using GraphPad Prism 5.

[2] = molecular target: T1, p53-Mdm2 interaction (N-terminal domain of Mdm2 protein, amino acids 1-111) (Homo sapiens, UniProt Q00987); assay: Fluorescence polarization (FP) binding assay of p53-Mdm2 interaction; details: for Ki: FP assay, 130 nM Mdm2, FAM-labelled p53 peptide, Ki transformed from IC50 using Kenakin equation; for times more potent than the corresponding S/R (racemic) mixture: enantiopure S isomers vs racemic Compounds 71, 93 and 72, respectively
T1 construct: N-terminal domain of Mdm2 protein (amino acids 1-111)
Procedure, shortened: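 N-terminal Mdm2 (aa 1-111) at 130 nM preincubated 15 min with compound (5% DMSO) in PBS, 0.1% CHAPS, 5 mM DTT, then […] FAM-labelled p53 peptide added. Polarization read after 90 min at room temperature (ex 470/em 520 nm). IC50 converted to Ki by Kenakin equation.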

T1 sequence (Q00987 1-111): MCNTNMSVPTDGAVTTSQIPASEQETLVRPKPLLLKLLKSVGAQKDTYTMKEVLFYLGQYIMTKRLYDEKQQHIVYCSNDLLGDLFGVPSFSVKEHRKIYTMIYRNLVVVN

Structure (SMILES) | IC50 ([1]; Homo sapiens, SJSA-1, 72 h) [µM] | Ki [2] [nM] | times more potent than the corresponding S/R (racemic) mixture [2] | IC50 [1] [µM]
COC(=O)/C=C/COc1ccc(Cl)cc1N1C(=O)c2nn(-c3ccccc3OC)c(C(C)C)c2C12C(=O)Nc1cc(Cl)ccc12 (centres unmarked) [Compound 62, methyl (2E)-4-{4-chloro-2-[6-chloro-2′-(2-methoxyphenyl)-2,6′-dioxo-3′-(propan-2-yl)-1,2,5′,6′-tetrahydro-2′H-spiro[indole-3,4′-pyrrolo[3,4-c]pyrazole]-5′-yl]phenoxy}but-2-enoate] | 2.23 | 11 |  | 
Cc1ccc(Cl)cc1N1C(=O)c2n[nH]c(C(C)C)c2C12C(=O)Nc1cc(Cl)ccc12 (centres unmarked) [Compound 23, 6-chloro-5′-(5-chloro-2-methylphenyl)-3′-(propan-2-yl)-1,2,5′,6′-tetrahydro-2′H-spiro[indole-3,4′-pyrrolo[3,4-c]pyrazole]-2,6′-dione] | 10.2 | 20 |  | 
COc1ccccc1-n1nc2c(c1C(C)C)C1(C(=O)Nc3cc(Cl)ccc31)N(c1cc(Cl)ccc1OCCS(C)(=O)=O)C2=O (centres unmarked) [Compound 73, 6-chloro-5′-[5-chloro-2-(2-methanesulfonylethoxy)phenyl]-2′-(2-methoxyphenyl)-3′-(propan-2-yl)-1,2,5′,6′-tetrahydro-2′H-spiro[indole-3,4′-pyrrolo [3,4-c]pyrazole]-2,6′-dione] | 11.4 | 42 |  | 
COc1ccccc1-n1nc2c(c1C(C)C)[C@@]1(C(=O)Nc3cc(Cl)ccc31)N(c1cncc(Cl)c1)C2=O [Compound 81, (3S)-6-chloro-5′-(5-chloropyridin-3-yl)-2′-(2-methoxyphenyl)-3′-(propan-2-yl)-1,2,5′,6′-tetrahydro-2′H-spiro-[indole-3,4′-pyrrolo[3,4-c]pyrazole]-2,6′-dione] |  | 2.2 | about 2 times | 0.8
COc1ccccc1-n1nc2c(c1C(C)C)[C@@]1(C(=O)Nc3cc(Cl)ccc31)N(c1cncc(Cl)c1)C2=O [Compound 88, (3S)-6-chloro-5′-(5-chloropyridin-3-yl)-2′-(2-methoxyphenyl)-3′-(propan-2-yl)-1,2,5′,6′-tetrahydro-2′H-spiro[indole-3,4′-pyrrolo[3,4-c]pyrazole]-2,6′-dione] |  | 1.9 |  | 0.34
COc1ccccc1-n1nc2c(c1C1(C)CC1)C1(C(=O)Nc3cc(Cl)ccc31)N(c1cccc(Cl)c1)C2=O (centres unmarked) [Compound 26, 6-chloro-5′-(3-chlorophenyl)-2′-(2-methoxyphenyl)-3′-(1-methylcyclopropyl)-1,2,5′,6′-tetrahydro-2′H-spiro[indole-3,4′-pyrrolo[3,4-c]pyrazole]-2,6′-dione] | 4.91 | 23 |  | 
CSc1ccccc1-n1nc2c(c1C(C)C)C1(C(=O)Nc3cc(Cl)ccc31)N(c1cc(Cl)ccc1C)C2=O (centres unmarked) [Compound 77, 6-chloro-5′-(5-chloro-2-methylphenyl)-2′-[2-(methylsulfanyl)phenyl]-3′-(propan-2-yl)-1,2,5′,6′-tetrahydro-2′H-spiro[indole-3,4′-pyrrolo[3,4-c]pyrazole]-2,6′-dione] | 8.57 | 30 |  | 
COc1ccc(C(N)=O)cc1-n1cc2c(c1C(C)C)[C@@]1(C(=O)Nc3cc(Cl)ccc31)N(c1cc(Cl)ccc1C)C2=O [Compound 110, 3-[(3S)-6-chloro-2′-(5-chloro-2-methylphenyl)-2,3′-dioxo-6′-(propan-2-yl)-1,2,3′,5′-tetrahydro-2′H-spiro[indole-3,1′-pyrrolo[3,4-c]pyrrole]-5′-yl]-4-methoxybenzamide] | 0.35 | 1.7 |  | 
Cc1ccc(Cl)cc1N1C(=O)c2n[nH]c(C3(C)CC3)c2C12C(=O)Nc1cc(Cl)ccc12 (centres unmarked) [Compound 18, 6-chloro-5′-(5-chloro-2-methylphenyl)-3′-(1-methylcyclopropyl)-1,2,5′,6′-tetrahydro-2′H-spiro[indole-3,4′-pyrrolo [3,4-c]pyrazole]-2,6′-dione] | 10.8 | 45 |  | 

More lines, in order of falling Ki [2], values ahead:

IC50 ([1]; Homo sapiens, SJSA-1, 72 h) [µM] | Ki [2] [nM] | times more potent than the corresponding S/R (racemic) mixture [2] | IC50 [1] [µM] | Structure (SMILES)
32 | 1460 |  |  | CC1(c2c3c(nn2CC2CCCN2)C(=O)N(c2cccc(Cl)c2)C32C(=O)Nc3cc(Cl)ccc32)CC1 (centres unmarked) [Compound 28, 6-chloro-5′-(3-chlorophenyl)-3′-(1-methylcyclopropyl)-2′-(pyrrolidin-2-ylmethyl)-1,2,5′,6′-tetrahydro-2′H-spiro [indole-3,4′-pyrrolo[3,4-c]pyrazole]-2,6′-dione]
43.8 | 650 |  |  | O=C1C(O)=C(c2ccccc2)C2(C(=O)Nc3cc(Cl)c(Cl)cc32)N1c1cccc(Cl)c1 (centres unmarked) [Compound 43, 5,6-dichloro-1′-(3-chlorophenyl)-4′-hydroxy-3′-phenyl-1,1′,2,5′-tetrahydrospiro [indole-3,2′-pyrrole]-2,5′-dione]
24.2 | 235 |  |  | CC(C)c1c2c(nn1CC1CCCN1C(=O)N(C)C)C(=O)N(c1cccc(Cl)c1)C21C(=O)Nc2cc(Cl)ccc21 (centres unmarked) [Compound 34, 2-[6-chloro-5′-(3-chlorophenyl)-2,6′-dioxo-3′-(propan-2-yl)-1,2,5′,6′-tetrahydro-2′H-spiro[indole-3,4′-pyrrolo [3,4-c]pyrazole]-2′-ylmethyl]-N,N-dimethylpyrrolidine-1-carboxamide]
4.04 | 67 |  |  | Cc1cccc(-n2nc3c(c2C(C)C)C2(C(=O)Nc4cc(Cl)ccc42)N(c2cc(Cl)ccc2C)C3=O)c1 (centres unmarked) [Compound 69, 6-chloro-5′-(5-chloro-2-methylphenyl)-2′-(3-methylphenyl)-3′-(propan-2-yl)-1,2,5′,6′-tetrahydro-2′H-spiro[indole-3,4′-pyrrolo[3,4-c]pyrazole]-2,6′-dione]
29.9 | 36 |  |  | O=C1C(O)=C(c2ccccc2)C2(C(=O)Nc3cc(Cl)ccc32)N1c1cc(Cl)ccc1F (centres unmarked) [Compound 45, 6-chloro-1′-(5-chloro-2-fluorophenyl)-4′-hydroxy-3′-phenyl-1,1′,2,5′-tetrahydrospiro[indole-3,2′-pyrrole]-2,5′-dione]
21.2 | 24 |  |  | CC(C)(C)c1[nH]nc2c1C1(C(=O)Nc3cc(Cl)ccc31)N(c1cccc(Cl)c1)C2=O (centres unmarked) [Compound 20, 3′-tert-butyl-6-chloro-5′-(3-chlorophenyl)-1,2,5′,6′-tetrahydro-2′H-spiro[indole-3,4′-pyrrolo[3,4-c]pyrazole]-2,6′-dione]
1.36 | 8.2 |  |  | COc1ccc(Cl)cc1N1C(=O)c2nn(-c3ccccc3OC)c(C(C)C)c2C12C(=O)Nc1cc(Cl)ccc12 (centres unmarked) [Compound 30, 6-chloro-5′-(5-chloro-2-methoxyphenyl)-2′-(2-methoxyphenyl)-3′-(propan-2-yl)-1,2,5′,6′-tetrahydro-2′H-spiro[indole-3,4′-pyrrolo[3,4-c]pyrazole]-2,6′-dione]
0.65 | 6.7 |  |  | COc1ccccc1-n1cc2c(c1C(C)C)C1(C(=O)Nc3cc(Cl)ccc31)N(c1cc(Cl)ccc1C(N)=O)C2=O (centres unmarked) [Compound 99, 4-chloro-2-[6-chloro-5′-(2-methoxy-phenyl)-2,3′-dioxo-6′-(propan-2-yl)-1,2,3′,5′-tetrahydro-2′H-spiro[indole-3,1′-pyrrolo[3,4-c]pyrrole]-2′-yl]benzamide]
0.46 | 4.3 |  |  | COc1ccccc1-n1nc2c(c1C(C)C)C1(C(=O)Nc3cc(Cl)ccc31)N(c1cc(Cl)cnc1C)C2=O (centres unmarked) [Compound 71, 6-chloro-5′-(5-chloro-2-methylpyridin-3-yl)-2′-(2-methoxyphenyl)-3′-(propan-2-yl)-1,2,5′,6′-tetrahydro-2′H-spiro[indole-3,4′-pyrrolo[3,4-c]pyrazole]-2,6′-dione]
0.78 | 4.2 |  |  | CCOC(=O)c1ccc(Cl)cc1N1C(=O)c2cn(-c3ccccc3OC)c(C(C)C)c2C12C(=O)Nc1cc(Cl)ccc12 (centres unmarked) [Compound 106, ethyl 4-chloro-2-[6-chloro-5′-(2-methoxyphenyl)-2,3′-dioxo-6′-(propan-2-yl)-1,2,3′,5′-tetrahydro-2′H-spiro[indole-3,1′-pyrrolo[3,4-c]pyrrole]-2′-yl]benzoate]
0.15 | 3.5 |  |  | COc1ccc(S(=O)(=O)N2CCOCC2)cc1-n1cc2c(c1C(C)C)C1(C(=O)Nc3cc(Cl)ccc31)N(c1cc(Cl)ccc1C)C2=O (centres unmarked) [Compound 112, 6-chloro-2′-(5-chloro-2-methylphenyl)-5′-[2-methoxy-5-(morpholine-4-sulfonyl)phenyl]-6′-(propan-2-yl)-1,2,3′,5′-tetrahydro-2′H-spiro[indole-3,1′-pyrrolo [3,4-c]pyrrole]-2,3′-dione]
0.06 | 1.9 | about 2 times |  | COc1ccc(-n2cc3c(c2C(C)C)[C@@]2(C(=O)Nc4cc(Cl)ccc42)N(c2cc(Cl)ccc2C)C3=O)c(OC)c1 [Compound 107, (3S)-6-chloro-2′-(5-chloro-2-methylphenyl)-5′-(2,4-dimethoxyphenyl)-6′-(propan-2-yl)-1,2,3′,5′-tetrahydro-2′H-spiro[indole-3,1′-pyrrolo[3,4-c]pyrrole]-2,3′-dione]
0.28 | 1.9 | about 2 times |  | COc1ccccc1-n1nc2c(c1C(C)C)[C@@]1(C(=O)Nc3cc(Cl)ccc31)N(c1cc(Cl)cnc1C)C2=O [Compound 80, (3S)-6-chloro-5′-(5-chloro-2-methyl-pyridin-3-yl)-2′-(2-methoxyphenyl)-3′-(propan-2-yl)-1,2,5′,6′-tetrahydro-2′H-spiro [indole-3,4′-pyrrolo[3,4-c]pyrazole]-2,6′-dione]

Source: US20170129903A1, “COMPOUNDS COMPRISING 1,1a,2,5a-TETRAHYDROSPIRO[INDOLE-3,2a-PYRROLE]-2,5a-DIONE SYSTEM AS INHIBITORS P53-MDM2 PROTEIN-PROTEIN INTERACTION” (ADAMED SP. Z O.O., priority 2014, published 2017)
